Literature values in patent US20240252489A1, “REPEATED ADMINISTRATION OF DIHYDROERGOTAMINE FOR TREATMENT OF FREQUENT MIGRAINE HEADACHES” (Woodward Specialty LLC, priority 2020, published 2024).

Tested on: patients with frequent migraine headaches
Conditions: 15 min after administration; reported in the literature

SMILES: N[C@@H]1c2cccnc2[C@H](OC(=O)N2CCC(n3c(=O)[nH]c4ncccc43)CC2)CC[C@H]1c1cccc(F)c1F [Rimegepant]
- subjects having pain relief: 8%
